Experimental data taken from patent US8067441B2, “Use of collismycin and derivatives thereof as oxidative stress inhibitors” (Neuropharma, S.A., priority 2005, dated 2011).

Legend:
Assay type in all cases: cell-based
[1] = system: SH-SY5Y human neuroblastoma cells; assay: Protection against 6-OHDA-induced cell death, condition A (2 h preincubation, 10% serum); conditions: 6-OHDA 75 μM, 16 h, medium with 10% foetal bovine serum
From the text: (§1) The aim of this experiment is to determine the protective effect of the compounds of formula (I) against the toxicity caused by 6-hydroxydopamine (6-OHDA). This toxin induces a cell death similar to which occurs in Parkinson's disease, destroying dopaminergic neurons (“MPTP and 6-hydroxydopamine-induced neurodegeneration as models for Parkinson's disease: neuroprotective strategies”; Grunblatt E, et al.; J Neurol. 2000 April; 247 Suppl 2:1195-102).
(§2) Cells are exposed to the treatment with 6-OHDA and, finally, cell death is measured by LDH quantification. As positive control we used NAC. The assay is performed in two different experimental conditions:
A) NAC and the compound of formula (I) are preincubated during 2 hours before the treatment with 6-OHDA 75 μM during 16 hours. The assay is performed in medium containing 10% Foetal bovine serum.

[2] = system: SH-SY5Y human neuroblastoma cells; assay: Protection against hydrogen peroxide-induced cell death (LDH); conditions: 1 h preincubation, H2O2 100 μM, 24 h
Description: The aim of this assay is to determine the neuroprotective effect of the compounds of formula (I), when human neuroblastoma cells are exposed to oxidative stress induced by hydrogen peroxide, which is highly deleterious to the cell and its accumulation causes oxidation of cellular targets such as DNA, proteins, and lipids leading to mutagenesis and cell death.
SH-SY5Y human neuroblastoma cells are seeded into 96-well culture plate at a density of 10^4 cells/well. Cells are exposed to the different concentrations of the compound one hour before the treatment with H2O2 100 μM during 24 h. 5 mM NAC, a known anti-oxidant agent was used as a positive control, and preincubated 1 hour before the treatment with H2O2. After 24 h, the medium is removed and cells attached to the bottom of the well are lysed by adding 50 μl of Triton X-100 1% in Krebs-Hepes during 5 minutes at room temperature.
Cell survival was determined in parallel in the same assay.

[3] = system: SH-SY5Y human neuroblastoma cells; assay: Protection against 6-OHDA-induced cell death, condition B (1 h preincubation, no serum); conditions: 6-OHDA 50 μM, 24 h, medium without fetal bovine serum
From the text: as §1, §2
B) NAC and the compound of formula (I) are preincubated during 1 hour before the treatment with 6-OHDA 50 μM during 24 hours. The assay is performed in medium without any fetal bovine serum.

SMILES | minimum concentration at which neuroprotective [1] [µM] | lowest concentration at which neuroprotective effects were detected [2] [µM] | minimum concentration showing neuroprotective effect [3] [µM] | neuroprotective activity against 6-OHDA (concentration not given) [1]
COc1cc(/C=N/O)nc(-c2ccccn2)c1 [Caerulomycin A] | 1 | 0.05 | 1 | 
COc1cc(-c2ccccn2)nc(CO)c1SC [Collismycin C] |  | 10 | 10 | neuroprotective activity
CSc1cc(C#N)nc(-c2ccccn2)c1 [Compound 1, 4-Methylsulfanyl-[2,2′]bipyridinyl-6-carbonitrile] |  | 5 |  | 
O/N=C/c1nc(-c2ccccn2)ccc1F [Compound 2, 5-Fluoro-[2,2′]bipyridinyl-6-carbaldehyde oxime] |  | 0.5 | 0.5 | neuroprotective activity
O/N=C/c1nc(-c2cnccn2)ccc1F [Compound 3, 3-Fluoro-6-pyrazin-2-yl-pyridine-2-carbaldehyde oxime] |  | 10 |  | neuroprotective activity
